Test results published in patent US5958770A, “Glycoalkaloids” (priority 1990, dated 1999).

Columns and labels:
human fibroblasts = test: cells; settings: for TR50 (thymidine ratio relative to ovarian cancer cells): FB / OvCa
Description: (§1) The inhibition of cell replication by steroid alkaloids is determined by the inhibition of the incorporation of ^3 H thymidine into DNA. Using this technique, it should be possible to monitor any preferential inhibition of uptake of ^3 H thymidine by cancer cells.
(§2) Cells were maintained as monolayers in RPM1-1640 tissue culture media (Grant Island Biological Co) buffered with N-2-hydroxy-ethylpiperazine-N-2-ethanesulphonic acid pH 7.5 and supplemented with 10% heat inactivated fetal calf serum (FCS): (i) a human ovarian cancer cell line (C180-135), (ii) HeLa cells, (iii) human fibroblasts, and (iv) as a cell suspension of lymphoblastoid cells (EBV transformed lymphocytes). Monolayers were trypsinized to form a cell suspension. […] Cell concentration was adjusted to 2×10^5 cells/ml, and 2×10^4 cells were added in replicates of 10 to the wells (1×10^5 /ml well) of HA microtitre plates (Millipore Corp., USA). The cells were preincubated at 37.5° C. for 7 hours prior to the addition of 50 μl of the cytotoxic drug followed by the addition of 50 μl 5 uCi/ml of ^3 H thymidine, in the same tissue culture media 21 hours later. Incubation was continued for a total of 24 hours, which includes the pre-incubation time.
(§3) Appropriate DMSO cytotoxicity studies were also conducted. Solasodine glycosides were supplied as a mixture (BEC), and as separate components, solamargine, solasonine, a mixture of di- and mono-glycosides and the aglycone solasodine. All cytotoxic drugs were further diluted with HIFCS/TCM before testing. 5×10^4 ovarian cancer cells (200 μl/chamber of a chamber of microscope slide (Lab Tek Miles Scientific) were used. Controls received 50 μl HIFCS/TCM and experimental chambers 50 μl of solasodine glycosides (BEC) 1.5-3.8 μM/L after 7 hrs preincubation, and incubated for a further 3 hrs. Similarly, the cells were treated with the aglycone solasodine 19.4-96.8 μM/L. The cells were fixed and examined by the Papanicolaou method.

HeLa cells = test: cells
Description: as §1, §2, §3

[1] = system: lymphoblastoid cells (EBV transformed lymphocytes); test: cells; settings: for TR50 (thymidine ratio relative to ovarian cancer cells): LCL / OvCa
Description: as §1, §2, §3

[2] = system: PWM stimulated lymphocytes; test: Inhibition of tritiated thymidine uptake, PWM stimulated lymphocytes; settings: PWM stimulated lymphocytes
Description: This was cultured for 48 hours and pulsed with tritiated thymidine for a further 24 hours. In the inhibition studies, the cell concentration was 8×10^5 /ml.
All cells were harvested by vacuum filtration by washing in 250 μl of each of phosphate buffered saline, 5% trichloroacetic acid, 1.0M NaCl and 95% ethanol and subjected to β-scintillatian counting. Similarly, peripheral human blood lymphocytes were isolated and cultured 2×10^5 lymphocytes in CO2 1640TCM 10% HIFCS. Lymphocytes were stimulated with 20 μg/ml PHA, Con A or PWM, and cultured for 48 hrs followed by a 24 hr pulse. […] Cell concentrations were 8×10^4 /well total volume 250 μl. The dpm of the experimental replicates were expressed as a percentage of the mean value of the controls, and the mean value of the experimental replicates calculated.

## C[C@@H]1CC[C@@]2(NC1)O[C@H]1C[C@H]3[C@@H]4CC=C5C[C@@H](O[C@@H]6O[C@H](CO)[C@@H](O[C@@H]7O[C@@H](C)[C@H](O)[C@@H](O)[C@H]7O)[C@H](O)[C@H]6O[C@@H]6O[C@@H](C)[C@H](O)[C@@H](O)[C@H]6O)CC[C@]5(C)[C@H]4CC[C@]3(C)[C@H]1[C@@H]2C [Solamargine, solamargine]
Human fibroblasts; listed as Solam
  TR50 (thymidine ratio relative to ovarian cancer cells): 2.3
Human fibroblasts; listed as solamargine
  TR50 (thymidine ratio relative to ovarian cancer cells): greater than 2
Human fibroblasts; Homo sapiens, Fibroblast, read-out: LD50 (dose to inhibit 50% tritiated thymidine uptake)
  IC50: 3.65 µM
Human fibroblasts; Homo sapiens, Fibroblast, read-out: Percentage Cell Survival
  viability at 11.5 µM: 23 ± 1.7%
HeLa cells; HeLa / OvCa
  TR50 (thymidine ratio relative to ovarian cancer cells): 1.6
HeLa cells; Homo sapiens, HeLa, read-out: LD50 (dose to inhibit 50% tritiated thymidine uptake)
  IC50: 2.5 µM
HeLa cells; Homo sapiens, HeLa, read-out: Percentage Cell Survival
  viability at 11.5 µM: 2.6 ± 0.5%
[1]; Homo sapiens, Lymphoblastoid cell, read-out: Percentage Cell Survival
  viability at 11.5 µM: 35 ± 4.2%
[1]; listed as Solam
  TR50 (thymidine ratio relative to ovarian cancer cells): 2.5
[1]; listed as solamargine
  TR50 (thymidine ratio relative to ovarian cancer cells): greater than 2
[1]; human gammaherpesvirus 4, LCL, read-out: LD50 (dose to inhibit 50% tritiated thymidine uptake)
  IC50: 3.95 µM
[2]
  cytotoxicity (words): absence of cytotoxicity
